# From US11453666B2, “Autotaxin inhibitory compounds” (Cancer Research Technology Limited, priority 2015, dated 2022)
# Biological target: human recombinant ATX (Homo sapiens, UniProt Q13822)
# Test: Autotaxin (ATX) activity Quanta Red assay
# Type: biochemical
# Details: Table 2: additional compounds tested for ATX activity (Quanta Red Assay); read-out: Activity
# Description: The reaction was stopped after 2 hours with a 20 μL addition of Quanta Red Stop solution (1:20 dilution in distilled water). The above-described mixture with DMSO alone was used as a positive control whereas that with DMSO alone without ATX was taken as a negative control.
# Fluorescence was determined in a BMG Labtech Pherastar plus plate reader ([…]). Data were analysed using Excel fit software. IC50 values were determined in duplicate.
row,IC50,SMILES
1,807 nM,"O=C(CCc1nc2cccnc2n1Cc1cccs1)NCc1ccccc1 [Example 226, N-Benzyl-3-(3-thiophen-2-ylmethyl-3H-imidazo[4,5-b]pyridin-2-yl)-propionamide]"

# Same assay, conditions: human recombinant ATX 0.8 μg/mL, 2 hours at room temperature, IC50 determined in duplicate; read-out: Activity (ATX activity, Quanta Red assay; IC50)
row,IC50,SMILES
1,80 nM,"C[C@H](NC(=O)NCc1nc2cccnc2n1Cc1ccc(F)cc1)c1ccc(F)cc1 [Example 160, 1-[3-(4-Fluoro-benzyl)-3H-imidazo[4,5-b]pyridin-2-ylmethyl]-3-[(S)-1-(4-fluoro-phenyl)-ethyl]-urea]"

# Same assay, conditions: read-out: Activity (ATX activity, Quanta Red assay; IC50)
row,SMILES,IC50
1,"O=C(CCc1nc2cccnc2n1Cc1ccc(OC(F)(F)F)cc1)Nc1ncco1 [Example 78, N-Oxazol-2-yl-3-[3-(4-trifluoromethoxy-benzyl)-3H-imidazo[4,5-b]pyridin-2-yl]-propionamide]",800 nM
2,"CC(NC(=O)CCc1nc2cccnc2n1Cc1ccc(OC(F)(F)F)cc1)C1CCN(C(=O)OC(C)(C)C)CC1 (stereo not shown) [Example 43, 4-(1-{3-[3-(4-Trifluoromethoxy-benzyl)-3H-imidazo[4,5-b]pyridin-2-yl]-propionylamino}-ethyl)-piperidine-1-carboxylic acid tert-butyl ester]",11 nM
3,"O=C(CCc1nc2cccnc2n1Cc1ccc(F)c(F)c1)NC[C@H](O)c1ccccc1 [Example 67, 3-[3-(3,4-Difluoro-benzyl)-3H-imidazo[4,5-b]pyridin-2-yl]-N-((R)-2-hydroxy-2-phenyl-ethyl)-propionamide]",169 nM
4,"O=C(CCc1nc2cccnc2n1Cc1ccc(F)c(F)c1)N[C@H]1CCc2ccccc21 [Example 55, 3-[3-(3,4-Difluoro-benzyl)-3H-imidazo[4,5-b]pyridin-2-yl]-N-(S)-indan-1-yl-propionamide]",40 nM
5,"CN(C)c1ccc(CNC(=O)CCc2nc3cccnc3n2Cc2ccc(OC(F)(F)F)cc2)cc1 [Example 31, N-(4-Dimethylamino-benzyl)-3-[3-(4-trifluoromethoxy-benzyl)-3H-imidazo[4,5-b]pyridin-2-yl]-propionamide]",6 nM
6,"O=C(CCc1nc2cccnc2n1Cc1ccc(OC(F)(F)F)cc1)NCC1CCCCC1 [Example 42, N-Cyclohexylmethyl-3-[3-(4-trifluoromethoxy-benzyl)-3H-imidazo[4,5-b]pyridin-2-yl]-propionamide]",11 nM
7,"O=C(CCc1nc2cccnc2n1Cc1ccc(F)c(F)c1)NC[C@@H](O)c1ccccc1 [Example 65, 3-[3-(3,4-Difluoro-benzyl)-3H-imidazo[4,5-b]pyridin-2-yl]-N-((S)-2-hydroxy-2-phenyl-ethyl)-propionamide]",155 nM
8,"CC(Sc1nc2cccnc2n1Cc1ccc(OC(F)(F)F)cc1)C(=O)N[C@@H](CO)c1ccccc1 (stereo partly drawn) [Example 154, N—((R)-2-hydroxy-1-phenyl-ethyl)-2-[3-(4-trifluoromethoxy-benzyl)-3H-imidazo[4,5-b]pyridin-2-ylsulfanyl]-propionamide]",11 nM
9,"Cc1ccc([C@H](C)NC(=O)CCc2nc3cccnc3n2Cc2ccc(F)c(F)c2)cc1 [Example 85, 3-[3-(3,4-Difluoro-benzyl)-3H-imidazo[4,5-b]pyridin-2-yl]-N-((S)-1-p-tolyl-ethyl)-propionamide]",4 nM
10,"COc1ccc(CNC(=O)CCc2nc3cccnc3n2Cc2ccc(OC(F)(F)F)cc2)cc1F [Example 27, N-(3-Fluoro-4-methoxy-benzyl)-3-[3-(4-trifluoromethoxy-benzyl)-3H-imidazo[4,5-b]pyridin-2-yl]-propionamide]",4 nM
11,"Cc1ccc([C@H](C)NC(=O)CCc2nc3ccncc3n2Cc2ccc(F)cc2)cc1 [Example 131, 3-[3-(4-Fluoro-benzyl)-3H-imidazo[4,5-c]pyridin-2-yl]-N-((S)-1-p-tolyl-ethyl)-propionamide]",23 nM
12,"CN(C)c1ccc(CNC(=O)CCc2nc3cccnc3n2Cc2ccc(F)c(F)c2)cc1 [Example 63, 3-[3-(3,4-Difluoro-benzyl)-3H-imidazo[4,5-b]pyridin-2-yl]-N-(4-dimethylamino-benzyl)-propionamide]",139 nM
13,"O=C(CCc1nc2cccnc2n1Cc1ccc(F)cc1)N[C@H](CO)c1ccccc1 [Example 64, 3-[3-(4-Fluoro-benzyl)-3H-imidazo[4,5-b]pyridin-2-yl]-N-((S)-2-hydroxy-1-phenyl-ethyl)-propionamide]",144 nM
14,"C[C@H](NC(=O)CCc1nc2cccnc2n1Cc1ccc(F)c(F)c1)c1ccc(N2CCOCC2)cc1 [Example 45, 3-[3-(3,4-Difluoro-benzyl)-3H-imidazo[4,5-b]pyridin-2-yl]-N-[(S)-1-(4-morpholin-4-yl-phenyl)-ethyl]-propionamide]",17 nM
15,"COc1ccc(Cn2c(CCC(=O)NCc3ccccc3C)nc3cccnc32)cc1 [Example 106, 3-[3-(4-Methoxy-benzyl)-3H-imidazo[4,5-b]pyridin-2-yl]-N-(2-methyl-benzyl)-propionamide]",98 nM
16,COc1ccc(Cn2c(CCC(=O)N(C)Cc3ccccc3)nc3cccnc32)cc1 [Example 102],568 nM
17,"C[C@H](NC(=O)CCc1nc2cccnc2n1Cc1ccc(F)c(F)c1)c1ccc(Br)cc1 [Example 17, N-[(S)-1-(4-Bromo-phenyl)-ethyl]-3-[3-(3,4-difluoro-benzyl)-3H-imidazo[4,5-b]pyridin-2-yl]-propionamide]",3 nM
18,"O=C(CCc1nc2cccnc2n1Cc1ccc(OC(F)(F)F)cc1)N[C@H]1CCc2ccccc21 [Example 25, N-(S)-Indan-1-yl-3-[3-(4-trifluoromethoxy-benzyl)-3H-imidazo[4,5-b]pyridin-2-yl]-propionamide]",4 nM
19,"O=C(CCc1nc2cccnc2n1Cc1ccc(F)cc1)NC(CO)c1ccc(OC(F)(F)F)cc1 (stereo not shown) [Example 33, 3-[3-(4-Fluoro-benzyl)-3H-imidazo[4,5-b]pyridin-2-yl]-N-[2-hydroxy-1-(4-trifluoromethoxy-phenyl)-ethyl]-propionamide]",6 nM
20,"O=C(CCc1nc2cccnc2n1Cc1ccc(F)c(F)c1)NCC1CCCCC1 [Example 71, N-Cyclohexylmethyl-3-[3-(3,4-difluoro-benzyl)-3H-imidazo[4,5-b]pyridin-2-yl]-propionamide]",243 nM

# Second part, the molecule after the results:
row,IC50,SMILES
1,80 nM,"C[C@H](NC(=O)CCc1nc2cccnc2n1Cc1ccc(F)c(F)c1)c1ccc(CN(C)C)cc1 [Example 208, 3-[3-(3,4-Difluoro-benzyl)-3H-imidazo[4,5-b]pyridin-2-yl]-N-[(S)-1-(4-dimethylaminomethyl-phenyl)-ethyl]-propionamide]"
2,3 nM,"C[C@H](NC(=O)CCc1nc2cccnc2n1Cc1ccc(OC(F)(F)F)cc1)c1ccc(NC2CCN(C)CC2)cc1 [Example 173, N-{(S)-1-[4-(1-Methyl-piperidin-4-ylamino)-phenyl]-ethyl}-3-[3-(4-trifluoromethoxy-benzyl)-3H-imidazo[4,5-b]pyridin-2-yl]-propionamide]"
3,13 nM,"C[C@H](NC(=O)CCc1nc2cccnc2n1Cc1ccc(F)cc1)c1ccc(N2CCOCC2)cc1 [Example 185, 3-[3-(4-Fluoro-benzyl)-3H-imidazo[4,5-b]pyridin-2-yl]-N-[(S)-1-(4-morpholin-4-yl-phenyl)-ethyl]-propionamide]"
4,495 nM,"CC(=O)N1CCC(CNC(=O)CCc2nc3cccnc3n2Cc2ccc(OC(F)(F)F)cc2)CC1 [Example 216, N-(1-Acetyl-piperidin-4-ylmethyl)-3-[3-(4-trifluoromethoxy-benzyl)-3H-imidazo[4,5-b]pyridin-2-yl]-propionamide]"
5,15 nM,"C[C@H](NC(=O)CCc1nc2cccnc2n1Cc1ccc(F)c(F)c1)c1ccc(N2CCCCC2)cc1 [Example 187, 3-[3-(3,4-Difluoro-benzyl)-3H-imidazo[4,5-b]pyridin-2-yl]-N-[(S)-1-(4-piperidin-1-yl-phenyl)-ethyl]-propionamide]"
6,8 nM,C[C@H](NC(=O)CCc1nc2cccnc2n1Cc1ccc(F)c(F)c1)c1ccc(N2CCN(C)CC2)cc1 [Example 182]
7,25 nM,"Cc1cnc2c(c1)nc(CCC(=O)N[C@@H](C)c1ccc(N3CCCNCC3)cc1)n2Cc1ccc(OC(F)(F)F)cc1 [Example 191, N-[(S)-1-(4-[1,4]Diazepan-1-yl-phenyl)-ethyl]-3-[6-methyl-3-(4-trifluoromethoxy-benzyl)-3H-imidazo[4,5-b]pyridin-2-yl]-propionamide]"
8,1 nM,"C[C@H](NC(=O)CCc1nc2cccnc2n1Cc1ccc(OC(F)(F)F)cc1)c1ccc(N2CC[C@H](N(C)C)C2)cc1 [Example 169, N-{(S)-1-[4-((S)-3-Dimethylamino-pyrrolidin-1-yl)-phenyl]-ethyl}-3-[3-(4-trifluoromethoxy-benzyl)-3H-imidazo[4,5-b]pyridin-2-yl]-propionamide]"
9,3 nM,"NC[C@H](NC(=O)CCc1nc2cccnc2n1Cc1ccc(OC(F)(F)F)cc1)c1ccccc1 [Example 210, N—((R)-2-amino-1-phenyl-ethyl)-3-[3-(4-trifluoromethoxy-benzyl)-3H-imidazo[4,5-b]pyridin-2-yl]-propionamide]"
10,37 nM,"O=C(CCc1nc2cccnc2n1Cc1ccc(F)c(F)c1)N[C@H](Cc1ccccc1)C(=O)O [Example 198, (R)-2-{3-[3-(3,4-Difluoro-benzyl)-3H-imidazo[4,5-b]pyridin-2-yl]-propionylamino}-3-phenyl-propionic acid]"
11,309 nM,"C[C@H](NC(=O)NCc1nc2cccnc2n1Cc1ccc(F)c(F)c1)c1ccc(N2CCOCC2)cc1 [Example 163, 1-[3-(3,4-Difluoro-benzyl)-3H-imidazo[4,5-b]pyridin-2-ylmethyl]-3-[(S)-1-(4-morpholin-4-yl-phenyl)-ethyl]-urea]"
12,188 nM,"O=C(CCc1nc2cccnc2n1Cc1ccc(OC(F)(F)F)cc1)N[C@H](CO)Cc1ccc(O)cc1 [Example 205, N-[(S)-1-Hydroxymethyl-2-(4-hydroxy-phenyl)-ethyl]-3-[3-(4-trifluoromethoxy-benzyl)-3H-imidazo[4,5-b]pyridin-2-yl]-propionamide]"
